Source: article PMC8269059, “Glycyrrhizin Derivatives Suppress Cancer Chemoresistance by Inhibiting Progesterone Receptor Membrane Component 1” (Cancers, 2021)

Assays:
PGRMC1 A147W = target: T1, PGRMC1 A147W (Homo sapiens, UniProt O00264, A147W); experiment: ITC binding of GL to PGRMC1 mutant A147W
T1 construct: human PGRMC1 intracellular domain residues 43-195; GST (N, cleaved yes); made in house; host or cells: E. coli BL21 (DE3)
Text: (§1) Bacterial expression vectors pGEX-PGRMC1 (human PGRMC1 intracellular domain residues 43-195) and mammalian FLAG-tagged expression vector pCMV-FLAG-PGRMC1 (full-length) were constructed as described previously. Expression vectors for PGRMC1 point mutants were generated by site-directed mutagenesis with PCR. For construction of HMGB1 expression vector, human HMGB1 full-length cDNA was cloned from cDNA library of HCT116 cells using the primers (Forward: 5′-[…]-3′, Reverse: 5′-[…]-[…]-3′), digested with Bam HI and Sal I, and then ligated into pGEX6P1.
(§2) ITC experiments were performed at 298 K with ITC-Buffer (50 mM phosphate [pH 7.0]) using a MicroCal iTC200 (Malvern Panalytical, Malvern, UK). GL derivatives were dissolved in […] and titrated into 100 μM apo-PGRMC1, heme-bound-PGRMC1, or HMGB1 protein. Titration was performed by injecting 2 µL of the syringe solution at intervals of 120 s. Binding isotherms were analyzed using SEDPHAT [35]. The binding of AG205 to apo- or heme-PGRMC1 (100 μM) was analyzed using a concentration of 3 mM containing 1% DMSO. The binding affinities of GL derivatives for HMGB1 (80 µM) were analyzed using a concentration of 3 mM.

PGRMC1 T146W = target: T2, PGRMC1 T146W (Homo sapiens, UniProt O00264, T146W); experiment: ITC binding of GL to PGRMC1 mutant T146W
T2 construct: human PGRMC1 intracellular domain residues 43-195; GST (N, cleaved yes); made in house; host or cells: E. coli BL21 (DE3)
Text: as §1, §2

PGRMC1 F128W = target: T3, PGRMC1 F128W (Homo sapiens, UniProt O00264, F128W); experiment: ITC binding of GL to PGRMC1 mutant F128W
T3 construct: human PGRMC1 intracellular domain residues 43-195; GST (N, cleaved yes); made in house; host or cells: E. coli BL21 (DE3)
Text: as §1, §2

PGRMC1-PGRMC1 binding = target: T4, PGRMC1-PGRMC1 binding (Homo sapiens, UniProt O00264); experiment: Co-immunoprecipitation of endogenous PGRMC1 with FLAG-PGRMC1 in HCT116 cells; assay type: cell-based; conditions: HCT116, co-IP of endogenous PGRMC1 with FLAG-PGRMC1, GL 12 hr
T4 construct: mammalian FLAG-tagged expression vector pCMV-FLAG-PGRMC1 (full-length); Endogenous PGRMC1 (25 kDa) was co-immunoprecipitated; expressed in transfected cells; host or cells: HCT116
Method: An expression vector of pCMV-3xFLAG-PGRMC1 or an empty vector was transfected into HCT116 cells or HuH7 cells using the transfection reagent Lipofectamine 2000 (Invitrogen). The cells were incubated overnight with either GL or GlucoGL. Cells were then lysed with NP40 lysis buffer (20 mM Tris-HCl [pH 7.5], 150 mM NaCl, and 1% NP40). The lysates were incubated with 10 μL of equilibrated anti-FLAG (M2) agarose for 60 min at room temperature. Bound proteins were washed three times and subjected to SDS-PAGE and visualized through western blotting using antibodies against FLAG, EGFR, and LDLR. For analysis of the endogenous PGRMC1-binding with FLAG-PGRMC1, HCT116 cells (1 × 10^7 cells) were treated with vehicle or 250 μM SA and/or 10 μM hemin for 48 h, and the cell lysates were co-immunoprecipitated with anti-FLAG (M2) agarose. Bound proteins (endogenous PGRMC1 and FLAG-tagged PGRMC1) were visualized through western blotting using antibody against PGRMC1.

T1 sequence (O00264 43-195 A147W): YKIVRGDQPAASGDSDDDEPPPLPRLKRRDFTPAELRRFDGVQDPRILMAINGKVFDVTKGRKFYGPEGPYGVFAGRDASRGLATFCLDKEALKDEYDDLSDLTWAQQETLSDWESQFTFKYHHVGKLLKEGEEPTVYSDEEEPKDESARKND
T2 sequence (O00264 43-195 T146W): as the sequence (O00264 43-195 A147W) above, with T104W, W105A counted along it
T3 sequence (O00264 43-195 F128W): as the sequence (O00264 43-195 A147W) above, with F86W, W105A counted along it
T4 sequence (O00264 whole entry): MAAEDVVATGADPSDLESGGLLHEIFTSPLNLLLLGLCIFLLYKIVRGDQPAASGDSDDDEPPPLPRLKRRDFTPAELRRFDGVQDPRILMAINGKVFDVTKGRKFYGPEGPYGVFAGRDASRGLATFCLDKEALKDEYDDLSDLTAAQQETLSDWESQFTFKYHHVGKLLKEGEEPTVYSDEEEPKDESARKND
T4 sequence (O00264 whole entry): as above

## CC1(C)[C@@H](O[C@H]2O[C@H](C(=O)O)[C@@H](O)[C@H](O)[C@H]2O[C@@H]2O[C@H](C(=O)O)[C@@H](O)[C@H](O)[C@H]2O)CC[C@]2(C)[C@H]3C(=O)C=C4[C@@H]5C[C@@](C)(C(=O)O)CC[C@]5(C)CC[C@@]4(C)[C@]3(C)CC[C@@H]12 [Glycyrrhizin (GL), Glycyrrhizin]
PGRMC1 A147W
  Kd: 158 µM
  TΔS: 2.10 K･kcal/mol
  ΔG: -5.19 kcal/mol
  ΔH: -3.09 kcal/mol
PGRMC1 T146W
  Kd: 97.9 µM
  TΔS: 2.64 K･kcal/mol
  ΔH: -2.17 kcal/mol
PGRMC1 F128W
  Kd: 137 µM
  TΔS: 0.38 K･kcal/mol
  ΔG: -5.27 kcal/mol
  ΔH: -4.90 kcal/mol
PGRMC1-PGRMC1 binding
  PGRMC1-PGRMC1 binding: did not affect
